This note sets out measurements from US10519162B2, “6,7-dihydropyrazolo[1,5-α]pyrazin-4(5H)-one compounds and their use as negative allosteric modulators of mGluR2 receptors” (Janssen Pharmaceutica NV, priority 2014, dated 2019).

One data set addresses T1, human mGlu2 receptor (Homo sapiens, UniProt Q14416).
T1 construct: expressed in transfected cells; host or cells: CHO cells
The experiment in a line: [35S]GTPγS binding assay (mGluR2 negative allosteric modulation, glutamate ~EC80 60 μM). The data set is classed as biochemical. As to conditions: for Emax: read-out: GTPγS-hmGluR2 anGT Emax; for IC50: membranes from CHO cells transfected with human mGlu2 receptor, glutamate ~EC80 (60 μM), pIC50 = −log IC50 (M), read-out: GTPγS-hmGluR2 anGT pIC50 (converted). On the procedure: 1) [^35S]GTPγS Binding Assay
[^35S]GTPγS Binding Assay
Total reaction volume was 200 μl. […] Membrane-bound radioactivity was counted in a Topcount.

Another data set relates to rats. As to the kind of experiment: Reversal of the effect of the mGluR2 PAM JNJ-42153605-induced inhibition of scopolamine-induced hyperlocomotion (SCOP JNJ-42153605). The data set is classed as in vivo, rat. As to conditions: for ED50: Rattus norvegicus. On the procedure:
2) Reversal of the Effect of the mGluR2 PAM JNJ-42153605-Induced Inhibition of Scopolamine-Induced Hyperlocomotion Apparatus
Motor activity was measured in microprocessor-based motor activity arenas (closed gray PVC cylinders with a height of 39 cm and a diameter of 31 cm). Each arena was placed on an infrared LED (8×8 LEDs) lit box (white PVC squared box; 40×40 cm^2; height 12.5 cm. An infrared-sensitive tube camera and a white light source were mounted to the ceiling above the observation chamber to track the animal. The total distance traveled (cm) was recorded and analyzed using the Noldus Ethovision XT Video Tracking System (Version 7.0.418; Noldus, Wageningen, The Netherlands). The intensity of the light within the activity cages (measured in the centre at the level of the floor) ranged between 4 and 8 LUX.
The rats were pretreated with test compound or vehicle at 60 min before the start of the activity recordings and placed into individual cages. The rats were challenged with JNJ-42153605 (3-(cyclopropylmethyl)-7-(4-phenylpiperidin-1-yl)-8-(trifluoromethyl)[1,2,4]triazolo[4,3-a]pyridine; WO2010/130424; Cid et al. J. Med. Chem. 2012, 55, 8770-8789) (20 mg/kg, i.v.) 30 min before the start of the activity recording combined with scopolamine (0.16 mg/kg, i.v.) just before the start of the activity measurements. Immediately after the injection of scopolamine, the rats were placed into the activity monitors and total distance travelled over the first 30 min was measured.
Solvent-Pretreated Control Rats.
Animals receiving the combination of JNJ-42153605 and scopolamine (n=433) almost always travelled a distance of less than 1500 cm (<1500 cm) (only 2.5% of the control rats travelled a distance of more than 1500 cm (>1500 cm)). On the other hand, animals challenged with scopolamine alone (n=215) always travelled a total distance of more than 1500 cm (>1500 cm) and almost always (in 95.8% of the rats) a distance of more than 4400 cm (>4400 cm). […] For reversal of the inhibitory effect of JNJ-42153605 on the scopolamine-induced hyperlocomotion, the following all-or-none criteria were adopted: (1) reversal: total distance >1500 cm.

Where [1] appears, read: maximal % inhibition relative to the control glutamate response (EC80 glutamate).
The mark [2] stands for this setting: PO (oral route), rats, reversal criterion total distance >1500 cm.
Setting [3] is: historical solvent-pretreated control rats, first 30 min.

T1 sequence (Q14416 19-872): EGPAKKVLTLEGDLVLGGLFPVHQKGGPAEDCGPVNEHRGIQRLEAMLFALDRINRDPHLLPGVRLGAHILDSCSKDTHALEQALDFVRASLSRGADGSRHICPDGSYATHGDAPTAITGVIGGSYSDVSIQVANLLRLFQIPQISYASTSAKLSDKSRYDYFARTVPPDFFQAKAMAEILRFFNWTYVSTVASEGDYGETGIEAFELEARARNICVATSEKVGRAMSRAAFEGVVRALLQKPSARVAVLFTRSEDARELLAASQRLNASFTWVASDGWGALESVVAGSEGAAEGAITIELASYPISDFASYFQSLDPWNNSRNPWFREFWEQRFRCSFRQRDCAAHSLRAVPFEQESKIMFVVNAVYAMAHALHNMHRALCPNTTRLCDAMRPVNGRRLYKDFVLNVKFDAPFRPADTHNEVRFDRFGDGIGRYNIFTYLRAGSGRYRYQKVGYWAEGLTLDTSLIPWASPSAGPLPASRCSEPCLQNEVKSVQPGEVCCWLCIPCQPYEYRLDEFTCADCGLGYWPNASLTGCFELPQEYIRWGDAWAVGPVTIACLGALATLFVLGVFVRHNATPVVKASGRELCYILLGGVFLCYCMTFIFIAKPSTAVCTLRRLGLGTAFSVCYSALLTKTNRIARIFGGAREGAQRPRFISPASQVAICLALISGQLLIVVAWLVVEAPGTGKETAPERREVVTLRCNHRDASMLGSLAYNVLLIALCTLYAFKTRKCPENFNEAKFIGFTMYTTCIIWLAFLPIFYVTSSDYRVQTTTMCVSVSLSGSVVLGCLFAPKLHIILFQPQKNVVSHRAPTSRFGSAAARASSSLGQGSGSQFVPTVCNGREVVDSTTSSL

Regarding `COc1cncc(C(=O)Nc2cnn3c2C(=O)N(c2ccc(C(F)(F)F)c(Cl)c2)C[C@@H]3C)c1C` [Co. No. 121], the melting point turned out to be 160.45 °C. Moreover, at human mGlu2 receptor (setting [1]), the Emax came to 106%. The IC50 on human mGlu2 receptor was 2.09e-08 M. The ED50 in the data set with rats (setting [2]) is over 0.63 mg/kg.
In the same order, the values of `C[C@H]1CN(c2ccc(S(F)(F)(F)(F)F)cc2)C(=O)c2c(NC(=O)c3cccnc3N)cnn21` [Co. No. 202] are 223.96 °C, 108%, 1.15e-09 M and 0.2 mg/kg.
With `CN1[C@@H]2C[C@@H](OC(=O)[C@H](CO)c3ccccc3)C[C@H]1[C@@H]1O[C@@H]12` [Scopolamine, scopolamine, reference compound], in the data set with rats (setting [3]), the “Rats with total distance >1500 cm (%)” value worked out at 100% and the “Rats with total distance >4400 cm (%)” value was 95.8%. Further, the “Total distance travelled, median (cm)” value with rats (historical solvent-pretreated control rats, first 30 min, scopolamine 0.16 mg/kg i.v., JNJ-42153605 20 mg/kg i.v.) is 7246 cm.
`C[C@H]1CN(c2ccc(C(F)(F)F)cc2)C(=O)c2c(NC(=O)c3ccc(N)cc3)cnn21` [Co. No. 204] had a melting point of 250.78 °C. Besides, the maximum response (Emax) at human mGlu2 receptor (setting [1]) is 107%. Moreover, on human mGlu2 receptor, the IC50 is 2.82e-09 M. Besides, the ED50 in the data set with rats (setting [2]) is 0.318 mg/kg.
Taken in the same sequence, the figures for `COc1cc(N2C[C@H](C)n3ncc(NC(=O)c4cncc(C)c4)c3C2=O)ccc1C(F)(F)F` [Co. No. 117] were 166.32 °C, 104%, 8.51e-09 M and over 0.63 mg/kg.
Taken in the same sequence, the figures for `C[C@H]1CN(c2ccc(C(F)(F)F)cc2)C(=O)c2c(NC(=O)c3ccccc3F)cnn21` [Co. No. 11] were 241.79 °C, 104%, 2.57e-09 M and over 2.5 mg/kg.
Taken in the same sequence, the figures for `COCc1cccc(C(=O)Nc2cnn3c2C(=O)N(c2ccc(C(F)(F)F)cc2)C[C@@H]3C)c1` [Co. No. 30] were 160.03 °C, 113%, 7.08e-09 M and over 2.5 mg/kg.
`COc1cc(N2C[C@H](C)n3ncc(NC(=O)c4ccc(N)nc4)c3C2=O)ccc1C(F)(F)F` [Co. No. 38]: the melting point turned out to be 179.66 °C. The maximal effect (Emax) at human mGlu2 receptor (setting [1]) was 109%. The IC50 at human mGlu2 receptor is 9.12e-09 M. Besides, in the data set on rats (setting [2]), the ED50 is over 2.5 mg/kg.
Taken in the same sequence, the figures for `C[C@H]1CN(c2ccc(C(F)(F)F)cc2)C(=O)c2c(NC(=O)c3ccccc3)cnn21` [Co. No. 16] were 201.48 °C, 108%, 3.39e-09 M and over 2.5 mg/kg.
Taken in the same sequence, the figures for `Cc1cncc(C(=O)Nc2cnn3c2C(=O)N(c2ccc(C(F)(F)F)cc2)C[C@@H]3C)c1` [Co. No. 99] were 165.21 °C, 114%, 3.98e-09 M and over 2.5 mg/kg.
Taken in the same sequence, the figures for `COc1cc(N2C[C@H](C)n3ncc(NC(=O)c4ccnc(C)c4)c3C2=O)ccc1C(F)(F)F` [Co. No. 123] were 157.12 °C, 107%, 2.63e-08 M and over 0.63 mg/kg.
Molecule `C[C@H]1CN(c2ccc(Cl)c(Cl)c2)C(=O)c2c(NC(=O)c3cncc(F)c3)cnn21` [Co. No. 109] showed a melting point of 128.16 °C. For the same molecule, the Emax at human mGlu2 receptor (setting [1]) was 105%. Moreover, the IC50 at human mGlu2 receptor is 1.38e-09 M. In the data set on rats (setting [2]), the ED50 was over 0.63 mg/kg.
In the same order, the values of `C[C@H]1CN(c2ccc(C(F)(F)F)cc2)C(=O)c2c(NC(=O)c3nccs3)cnn21` [Co. No. 15] are 213.94 °C, 111%, 3.24e-09 M and over 2.5 mg/kg.
With `C[C@H]1CN(c2ccc(C(F)(F)F)c(F)c2)C(=O)c2c(NC(=O)c3cccnc3)cnn21` [Co. No. 126], the melting point was found to be 226.14 °C. For the same molecule, the “GTPγS-hmGluR2 anGT Emax” value at human mGlu2 receptor (setting [1]) was found to be 110%. Moreover, the IC50 on human mGlu2 receptor is 4.17e-09 M. The “ED50 SCOP JNJ-42153605” value with rats (setting [2]) was over 0.63 mg/kg.
`C[C@H]1CN(c2ccc(C(F)(F)F)cc2)C(=O)c2c(NC(=O)c3nccnc3N)cnn21` [Co. No. 206, 3-Amino-N-[(7S)-7-methyl-4-oxo-5-[4-(trifluoromethyl)phenyl]-6,7-dihydropyrazolo[1,5-a]pyrazin-3-yl]pyrazine-2-carboxamide] displayed a melting point of 205.79 °C. Further, the maximum response (Emax) at human mGlu2 receptor (setting [1]) came out at 110%. In addition, the IC50 on human mGlu2 receptor is 3.02e-09 M. Further, the ED50 with rats (setting [2]) amounted to 0.505 mg/kg.
Taken in the same sequence, the figures for `Cc1cncc(C(=O)Nc2cnn3c2C(=O)N(c2ccc(Cl)c(Cl)c2)C[C@@H]3C)c1` [Co. No. 108] were 185.71 °C, 109%, 9.77e-10 M and over 0.63 mg/kg.
Taken in the same sequence, the figures for `COc1cncc(C(=O)Nc2cnn3c2C(=O)N(c2ccc(C(F)(F)F)c(Cl)c2)C[C@@H]3C)c1` [Co. No. 150] were 133.07 °C, 107%, 1.66e-09 M and over 0.63 mg/kg.
In the same order, the values of `C[C@H]1CN(c2ccc(Cl)c(Cl)c2)C(=O)c2c(NC(=O)c3ccc(N)nc3)cnn21` [Co. No. 3] are 189.94 °C, 110%, 1.62e-09 M and 0.32 mg/kg.
For `C[C@H]1CN(c2ccc(C(F)(F)F)cc2)C(=O)c2c(NC(=O)c3cnc(N)cn3)cnn21` [Co. No. 45], the melting point was 287.45 °C. Besides, the Emax at human mGlu2 receptor (setting [1]) came to 106%. The IC50 on human mGlu2 receptor is 1.2e-08 M. Also, the median effective dose (ED50) in the data set with rats (setting [2]) is over 2.5 mg/kg.
As for `COc1cccc(C(=O)Nc2cnn3c2C(=O)N(c2ccc(C(F)(F)F)cc2)C[C@@H]3C)c1` [Co. No. 27], the melting point amounted to 136.91 °C. In addition, the Emax on human mGlu2 receptor (setting [1]) is 106%. Also, at human mGlu2 receptor, the IC50 was 6.61e-09 M. In addition, the median effective dose (ED50) with rats (setting [2]) was over 2.5 mg/kg.
Take `C[C@H]1CN(c2ccc(C(F)(F)F)cc2)C(=O)c2c(NC(=O)c3cccnc3NCCO)cnn21` (racemic) [Co. No. 213]: the melting point came to 168.55 °C. Also, the maximal response (Emax) on human mGlu2 receptor (setting [1]) stood at 103%. For the same molecule, the IC50 at human mGlu2 receptor was 1.02e-09 M. Also, the ED50 in the data set with rats (setting [2]) was 1.12 mg/kg.
Taken in the same sequence, the figures for `COCc1cc(N2C[C@H](C)n3ncc(NC(=O)c4ccc(N)nc4)c3C2=O)ccc1C(F)(F)F` [Co. No. 22] were 213.77 °C, 111%, 4.79e-09 M and over 2.5 mg/kg.
Taken in the same sequence, the figures for `COc1cncc(C(=O)Nc2cnn3c2C(=O)N(c2ccc(C(F)(F)F)cc2)C[C@@H]3C)n1` [Co. No. 183] were 185.23 °C, 114%, 2.24e-09 M and 0.318 mg/kg.
For `Cc1cnc(N)c(C(=O)Nc2cnn3c2C(=O)N(c2ccc(Cl)cc2)C[C@@H]3C)c1` [Co. No. 201], at human mGlu2 receptor (setting [1]), the maximum response (Emax) is 108%. Also, the IC50 at human mGlu2 receptor is 4.9e-09 M. In the data set with rats (setting [2]), the ED50 was over 0.63 mg/kg.
For the molecule `C[C@H]1CN(c2ccc(C(F)(F)F)c(C#N)c2)C(=O)c2c(NC(=O)c3ccc(N)nc3)cnn21` [Co. No. 26], the melting point turned out to be 216.96 °C. The Emax on human mGlu2 receptor (setting [1]) amounted to 106%. Besides, at human mGlu2 receptor, the IC50 is 6.46e-09 M. The median effective dose (ED50) with rats (setting [2]) was over 2.5 mg/kg.
As to `C[C@H]1CN(c2ccc(Cl)c(OC(F)F)c2)C(=O)c2c(NC(=O)c3ccc(N)nc3)cnn21` [Co. No. 18], on human mGlu2 receptor (setting [1]), the maximal response (Emax) turned out to be 117%. Besides, the IC50 on human mGlu2 receptor was 4.27e-09 M. Besides, the 50% effective dose (ED50) with rats (setting [2]) is over 2.5 mg/kg.
Taken in the same sequence, the figures for `C[C@H]1CN(c2ccc(Cl)cc2)C(=O)c2c(NC(=O)c3ccc(N)nc3)cnn21` [Co. No. 36] were 110%, 8.91e-09 M and 0.5 mg/kg.
Regarding `C[C@H]1CN(c2ccc(C(F)(F)F)c(Cl)c2)C(=O)c2c(NC(=O)c3cccnc3NCCO)cnn21` (racemic) [Co. No. 214], on human mGlu2 receptor (setting [1]), the maximal response (Emax) turned out to be 112%. The IC50 on human mGlu2 receptor is 5.25e-10 M. In the data set on rats (setting [2]), the 50% effective dose (ED50) was found to be 0.32 mg/kg.
